Series [1] has as its target GSK3β (Homo sapiens, UniProt P49841). In words: GSK3beta assay (SPA, biotinylated phosphorylated CREB peptide, ATP-P33). The class given is biochemical. The note with it: −log IC50 (M); 19 nM GSK3β, 5 μM biotinylated phosphorylated CREB peptide, 1 μM ATP, 25° C., one hour. As for the experimental part: GSK3beta assays were performed at 25° C. in a 100 μl reaction volume of 25 mM Tris (pH 7.4) containing 10 mM MgCl2, 1 mM DTT, 0.1 mg/ml BSA, 5% glycerol and containing 19 nM GSK3β, 5 μM biotinylated phosphorylated CREB peptide, 1 μM ATP, 2 nM ATP-P^33 and a suitable amount of a test compound of formula (I) or (I′). After one hour, the reaction was terminated by adding 70 μl of Stop mix (1 mM ATP, 18 mg/ml streptavidin coated PVT SPA bead pH 11.0). The beads to which the phosphorylated CREB peptide is attached were allowed to settle for 30 minutes and the radioactivity of the beads was counted in a microtiterplate scintillation counter and compared with the results obtained in a control experiment (without the presence of a test compound) in order to determine the percentage of GSK3β inhibition. The IC50 value, i.e. the concentration (M) of the test compound at which 50 % of GSK3β is inhibited, was calculated from the dose response curve obtained by performing the above-described GSK3β assay in the presence of different amounts of the test compound.
Table 4 lists pIC50 values (−log IC50 (M)) obtained in the above-described test for the present compounds.

What is called IC50 is the concentration that gives 50% inhibition. The low end stands for greater potency in that assay, the high end for weaker potency in that assay. Broadly, the melting point is the temperature of the solid-liquid transition.

Sequence of GSK3β (P49841 whole entry, species assumed): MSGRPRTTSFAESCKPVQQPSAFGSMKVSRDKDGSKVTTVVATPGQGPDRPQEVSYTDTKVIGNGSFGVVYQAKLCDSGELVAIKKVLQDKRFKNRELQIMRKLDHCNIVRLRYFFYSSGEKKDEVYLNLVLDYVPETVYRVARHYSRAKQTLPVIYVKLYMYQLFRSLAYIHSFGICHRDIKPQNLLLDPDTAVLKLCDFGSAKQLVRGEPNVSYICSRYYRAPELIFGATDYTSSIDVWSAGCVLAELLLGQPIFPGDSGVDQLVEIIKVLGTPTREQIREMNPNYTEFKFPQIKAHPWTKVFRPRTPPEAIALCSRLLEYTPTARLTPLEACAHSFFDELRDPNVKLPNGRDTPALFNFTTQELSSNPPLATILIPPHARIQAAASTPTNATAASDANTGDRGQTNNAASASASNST

In the case of `NC(=O)c1ccc(Nc2ncc(Br)c(OCc3ccccc3)n2)cc1` [Compound 22, 4-[[5-bromo-4-(phenylmethoxy)-2-pyrimidinyl]amino]-benzamide], inhibition in series [1] was half-maximal at 6.46e-08 M (IC50).

The compound `NC(=O)c1cccc(Nc2nccc(OCc3ccccc3)n2)c1` [Compound 17] showed an IC50 in series [1] of 1.41e-06 M.

Turning to `NC(=O)c1cccc(Nc2ncc([N+](=O)[O-])c(NCc3ccccc3)n2)c1` [Compound 1], in series [1], the IC50 is 1.82e-07 M.

Take `NC(=O)c1cccc(Nc2ncc(Br)c(OCc3ccccc3)n2)c1` [Compound 4]: the melting point is 216 to 217 °C. Moreover, in series [1], the half-inhibitory concentration (IC50) was 5.25e-08 M.

The compound `N#Cc1cnc(Nc2cccc(C(N)=O)c2)nc1OCc1ccccc1` [Compound 9, 3-[[5-cyano-4-(phenylmethoxy)-2-pyrimidinyl]amino]-benzamide] showed a melting point of 260 to 261 °C. In series [1], this compound had a 50% inhibitory concentration (IC50) of 1.82e-08 M.

For `N#Cc1cnc(Nc2ccc(C(N)=O)cc2)nc1OCc1ccccc1` [Compound 23, 4-[[5-cyano-4-(phenylmethoxy)-2-pyrimidinyl]amino]-benzamide], the IC50 in series [1] was 2.19e-08 M.

The record behind these values is patent publication US20060063789A1, “Aminobenzamide derivatives as glycogen synthase kinase 3 beta inhibitors” (priority 2001, published 2006).
